This assay concerns erythrocytic stages of P. falciparum NF54. The assay is described as follows: Plasmodium falciparum in vitro assay, [3H] hypoxanthine incorporation. It counts as cell-based. The note with it: P. falciparum NF54 in human red blood cells, 48 h + 24 h incubation. As to the method: In Vitro Antimalarial Activity: Plasmodium falciparum In Vitro Assay In vitro activity against erythrocytic stages of P. falciparum in human red blood cells is determined using a [^3H] hypoxanthine incorporation assay. […] Thereafter, the parasite cultures incubated in screening medium containing washed human red blood cells at 2.5% hematocrit (0.3% parasitemia) are added to the serially diluted compounds and incubated in a humidifying atmosphere at 37° C., 4% CO2, 3% O2, and 93% N2. After 48 h, [^3H] hypoxanthine (0.5 μCi) is added to each well of a plate. The plates are incubated for a further 24 h under the same conditions then harvested with a Betaplate cell harvester (Wallac) and washed with distilled water. The dried filters are inserted into a plastic foil with 10 mL of scintillation fluid, and counted in a Betaplate liquid scintillation counter. IC50 values are calculated from sigmoidal inhibition curves using Microsoft Excel.

The mark [1] stands for this setting: Plasmodium falciparum, Erythrocyte, 72 h, screening medium with Albumax (5 g/L), read-out: IC50 on NF54 (with Albumax).
Where [2] appears, read: Plasmodium falciparum, Erythrocyte, 72 h, screening medium with human serum (50% final concentration), read-out: IC50 on NF54 (with 50% Serum).

Read-outs that look alike come from different tables or passages of the source.

Regarding `CC(=O)c1ccc(C=CC(=O)N(Cc2ccc(N3CCN(C(C)=O)CC3)cc2)[C@@H](Cc2ccccc2)C(=O)N2CCN(Cc3ccc(N(C)C)cc3)CC2)cc1` [Example 70, (S)-3-(4-Acetyl-phenyl)-N-[4-(4-acetyl-piperazin-1-yl)benzyl]-N-{1-(4-(4-(dimethylamino)benzyl)piperazin-1-yl)-1-oxo-3-phenylpropan-2-yl}acrylamide], the IC50 is, setting by setting: under setting [1], < 3.1 nM; under setting [2], 16 nM.

On to `CC(=O)Nc1ccc(C=CC(=O)N(Cc2ccc(N3CCN(C(C)=O)CC3)cc2)[C@@H](Cc2ccccc2)C(=O)N2CCN(Cc3ccc(Cl)cc3)CC2)cc1` [Example 37, (S)-3-(4-Acetylamino-phenyl)-N-[4-(4-acetyl-piperazin-1-yl)-benzyl]-N-{1-benzyl-2-[4-(4-chloro-benzyl)-piperazin-1-yl]-2-oxo-ethyl}-acrylamide], for which the IC50 reads like this: under setting [1], 3.2 nM; under setting [2], 28 nM.

Consider `COc1ccc(C=CC(=O)N(Cc2ccc(N3CCN(C(C)=O)CC3)cc2)[C@@H](Cc2ccccc2)C(=O)N2CCN(Cc3ccc(N(C)C)cc3)CC2)cc1` [Example 69, (S)-N-[4-(4-Acetyl-piperazin-1-yl)benzyl]-N-{1-(4-(4-(dimethylamino)benzyl)piperazin-1-yl)-1-oxo-3-phenylpropan-2-yl}-3-(4-methoxyphenyl)acrylamide], for which the IC50 was < 3.1 nM under setting [1] and 17 nM under setting [2].

As to `CC(=O)N1CCN(c2ccc(CN(C(=O)C=Cc3ccc(S(C)(=O)=O)cc3)[C@@H](Cc3ccccc3)C(=O)N3CCN(Cc4ccc(C#N)cc4)CC3)cc2)CC1` [Example 26, (S)-N-[4-(4-Acetyl-piperazin-1-yl)-benzyl]-N-{1-benzyl-2-[4-(4-cyano-benzyl)-piperazin-1-yl]-2-oxo-ethyl}-3-(4-methanesulfonyl-phenyl)-acrylamide], the 50% inhibitory concentration (IC50) by setting is: under setting [1], 18 nM; under setting [2], 33 nM.

`CC(=O)N1CCN(c2ccc(CN(C(=O)C=Cc3ccc(C(F)(F)F)cc3)[C@@H](Cc3ccccc3)C(=O)N3CCN(Cc4ccc([N+](=O)[O-])cc4)CC3)cc2)CC1` [Example 64, (S)-N-[4-(4-Acetyl-piperazin-1-yl)-benzyl]-N-{1-benzyl-2-[4-(4-nitro-benzyl)-piperazin-1-yl]-2-oxo-ethyl}-3-(4-trifluoromethyl-phenyl)-acrylamide]: the IC50 reads like this: under setting [1], 3.5 nM; under setting [2], 43 nM.

For the compound `CC(=O)N1CCN(c2ccc(CN(C(=O)C=Cc3ccc(C(F)(F)F)nc3)[C@@H](Cc3ccccc3)C(=O)N3CCN(Cc4ccc(N(C)CCO)cc4)CC3)cc2)CC1` [Example 51, (S)-N-[4-(4-Acetyl-piperazin-1-yl)-benzyl]-N-[1-benzyl-2-(4-{4-[(2-hydroxy-ethyl)-methyl-amino]-benzyl}-piperazin-1-yl)-2-oxo-ethyl]-3-(6-trifluoromethyl-pyridin-3-yl)-acrylamide], the IC50 was 10.7 nM under setting [1] and 29.8 nM under setting [2].

Take `CC(=O)N1CCN(c2ccc(CN(C(=O)C=Cc3ccc(C)cc3)[C@@H](Cc3ccccc3)C(=O)N3CCN(Cc4ccc(N(C)C)cc4)CC3)cc2)CC1` [Example 67, (S)-N-[4-(4-Acetyl-piperazin-1-yl)benzyl]-N-{1-[4-(4-(dimethylamino)benzyl)piperazin-1-yl]-1-oxo-3-phenylpropan-2-yl}-3-(p-tolyl)acrylamide]: the IC50 is, setting by setting: under setting [1], < 3.1 nM; under setting [2], 17.5 nM.

Consider `CC(=O)N1CCN(c2ccc(CN(C(=O)C=Cc3ccc(C(F)(F)F)nc3)[C@@H](Cc3ccccc3)C(=O)N3CCN(Cc4ccc(N(C)C)cc4)CC3)cc2)CC1` [Example 12, (S)-N-[4-(4-Acetyl-piperazin-1-yl)-benzyl]-N-{1-benzyl-2-[4-(4-dimethylamino-benzyl)-piperazin-1-yl]-2-oxo-ethyl}-3-(6-trifluoromethyl-pyridin-3-yl)-acrylamide], for which the IC50 by setting is: under setting [1], 17 nM; under setting [2], 74 nM.

Turning to `CCOc1ccc(C=CC(=O)N(Cc2ccc(N3CCN(C(C)=O)CC3)cc2)[C@@H](Cc2ccccc2)C(=O)N2CCN(Cc3ccc(N(C)C)cc3)CC2)cn1` [Example 14, (S)-N-[4-(4-Acetyl-piperazin-1-yl)-benzyl]-N-{1-benzyl-2-[4-(4-dimethylamino-benzyl)-piperazin-1-yl]-2-oxo-ethyl}-3-(6-ethoxy-pyridin-3-yl)-acrylamide], the IC50 by setting is: under setting [1], 3.7 nM; under setting [2], 20 nM.

Regarding `CC(=O)Nc1ccc(C=CC(=O)N(Cc2ccc(N3CCN(C(C)=O)CC3)cc2)[C@@H](Cc2ccccc2)C(=O)N2CCN(Cc3ccc(N(C)C)cc3)CC2)cc1` [Example 17, (S)-3-(4-Acetylamino-phenyl)-N-[4-(4-acetyl-perazin-1-yl)-benzyl]-N-{1-benzyl-2-[4-(4-dimethylamino-benzyl)-piperazin-1-yl]-2-oxo-ethyl}-acrylamide], the IC50 reads like this: (screening medium with Albumax (5 g/L), read-out: IC50 on NF54 (with Albumax)) 4.3 nM; (screening medium with human serum (50% final concentration), read-out: IC50 on NF54 (with 50% Serum)) 39 nM.

With `COc1ccc(C=CC(=O)N(Cc2ccc(N3CCN(C(C)=O)CC3)cc2)[C@@H](Cc2ccccc2)C(=O)N2CCN(Cc3ccc(N(C)C)cc3)CC2)cn1` [Example 13, (S)-N-[4-(4-Acetyl-piperazin-1-yl)-benzyl]-N-{1-benzyl-2-[4-(4-dimethylamino-benzyl)-piperazin-1-yl]-2-oxo-ethyl}-3-(6-methoxy-pyridin-3-yl)-acrylamide], the IC50 runs as follows: under setting [1], 12 nM; under setting [2], 46 nM.

`CC(=O)N1CCN(c2ccc(CN(C(=O)C=Cc3ccc(C(F)(F)F)cc3)[C@@H](Cc3ccccc3)C(=O)N3CCN(Cc4ccc(N(C)C)cc4)CC3)cc2)CC1` [Example 11, (S)-N-[4-(4-Acetyl-piperazin-1-yl)-benzyl]-N-{1-benzyl-2-[4-(4-dimethylamino-benzyl)-piperazin-1-yl]-2-oxo-ethyl}-3-(4-trifluoromethyl-phenyl)-acrylamide]: the IC50 stood at 4 nM under setting [1] and 21 nM under setting [2].

With `CC(=O)N1CCN(c2ccc(CN(C(=O)C=Cc3ccccc3)[C@@H](Cc3ccccc3)C(=O)N3CCN(Cc4ccc(N(C)C)cc4)CC3)cc2)CC1` [Example 66, (S)-N-[4-(4-Acetyl-piperazin-1-yl)benzyl]-N-{1-(4-(4-(dimethylamino)benzyl)piperazin-1-yl)-1-oxo-3-phenylpropan-2-yl}cinnamamide], the IC50 under setting [1] turned out to be 24.6 nM and the IC50 under setting [2] stood at 113 nM.

In the case of `CC(=O)N1CCN(c2ccc(CN(C(=O)C=Cc3ccc(Cl)cc3)[C@@H](Cc3ccccc3)C(=O)N3CCN(Cc4ccc(N(C)C)cc4)CC3)cc2)CC1` [Example 73, (S)-N-[4-(4-Acetyl-piperazin-1-yl)benzyl]-3-(4-chlorophenyl)-N-{1-(4-(4-(dimethylamino)benzyl)piperazin-1-yl)-1-oxo-3-phenylpropan-2-yl}acrylamide], the IC50 was determined as 3.3 nM under setting [1] and 26 nM under setting [2].

On to `COc1ccc(CN2CCN(C(=O)[C@H](Cc3ccccc3)N(Cc3ccc(N4CCN(C(C)=O)CC4)cc3)C(=O)C=Cc3ccc(C(F)(F)F)cc3)CC2)cc1` [Example 63, (S)-N-[4-(4-Acetyl-piperazin-1-yl)-benzyl]-N-{1-benzyl-2-[4-(4-methoxy-benzyl)-piperazin-1-yl]-2-oxo-ethyl}-3-(4-trifluoromethyl-phenyl)-acrylamide], for which the IC50 runs as follows: under setting [1], 3.2 nM; under setting [2], 17.8 nM.

By IC50 is commonly meant the concentration that gives 50% inhibition.

For the origin of these results see patent US8889688B2, “Piperazines as antimalarial agents” (Actelion Pharmaceuticals Ltd., priority 2011, dated 2014).
